Test results from patent US9982231B2, “Methods for reprogramming differentiated non-cardiac cells into cardiomyocytes” (The J. David Gladstone Institutes, a testamentary trust …, priority 2013, dated 2018).

Assays:
[1] = molecular target: PDGF receptor tyrosine kinase; details: PDGFR kinase / PDGF receptor tyrosine kinase; cited from earlier work
[2] = molecular target: epidermal growth factor receptor (EGFR) (Homo sapiens, UniProt P00533); details: EGFR / EGF receptor kinase; cited from earlier work
Chain of epidermal growth factor receptor (EGFR) (P00533 25-1210, species assumed): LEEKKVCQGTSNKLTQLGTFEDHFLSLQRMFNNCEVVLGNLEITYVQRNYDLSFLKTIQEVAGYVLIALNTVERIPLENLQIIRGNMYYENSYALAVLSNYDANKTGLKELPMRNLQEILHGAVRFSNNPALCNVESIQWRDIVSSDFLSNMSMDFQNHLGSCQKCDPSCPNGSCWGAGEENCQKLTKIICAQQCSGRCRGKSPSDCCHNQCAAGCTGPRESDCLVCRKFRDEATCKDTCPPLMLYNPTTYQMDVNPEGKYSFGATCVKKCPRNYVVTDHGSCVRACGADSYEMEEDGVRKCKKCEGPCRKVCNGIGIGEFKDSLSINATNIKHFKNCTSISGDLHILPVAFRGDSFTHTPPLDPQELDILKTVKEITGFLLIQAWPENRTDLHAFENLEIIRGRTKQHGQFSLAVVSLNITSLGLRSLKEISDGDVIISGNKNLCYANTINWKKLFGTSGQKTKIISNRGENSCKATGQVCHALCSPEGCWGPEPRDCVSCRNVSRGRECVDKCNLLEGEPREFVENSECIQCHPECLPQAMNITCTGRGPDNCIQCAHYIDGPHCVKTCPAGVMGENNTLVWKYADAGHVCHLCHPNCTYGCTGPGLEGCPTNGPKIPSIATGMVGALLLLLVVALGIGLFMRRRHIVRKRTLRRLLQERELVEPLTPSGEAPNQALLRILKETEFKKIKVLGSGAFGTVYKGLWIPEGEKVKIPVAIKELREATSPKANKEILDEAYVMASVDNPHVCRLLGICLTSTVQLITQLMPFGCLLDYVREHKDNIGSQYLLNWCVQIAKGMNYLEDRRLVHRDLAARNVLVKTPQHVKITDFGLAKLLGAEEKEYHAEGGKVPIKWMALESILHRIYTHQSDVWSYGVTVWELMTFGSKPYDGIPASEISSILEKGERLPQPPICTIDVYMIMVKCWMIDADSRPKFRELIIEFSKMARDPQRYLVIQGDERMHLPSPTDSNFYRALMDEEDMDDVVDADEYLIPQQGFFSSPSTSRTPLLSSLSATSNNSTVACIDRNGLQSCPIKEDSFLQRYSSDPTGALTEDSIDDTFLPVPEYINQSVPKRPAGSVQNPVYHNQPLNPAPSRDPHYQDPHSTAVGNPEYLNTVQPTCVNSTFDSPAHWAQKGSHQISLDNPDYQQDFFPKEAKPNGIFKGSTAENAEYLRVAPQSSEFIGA

[3] = tested on: contracting cardiomyocytes derived from human fibroblast cells; assay: Responses of reprogrammed cardiomyocytes to β-adrenergic and muscarinic stimulation; assay type: cell-based; details: cardiomyocytes reprogrammed from CRL-2097
Method: Naïve human fibroblast CRL-2097 cells were treated with cardiac reprogramming medium for 6 days followed by treatment with cardiac induction medium 1 for 5 days and then cardiac induction medium 2 for 21-26 days.
Representative beating frequencies of the reprogrammed cells are shown in FIG. 7A before (i) or after β-adrenergic stimulation by its agonist (ii, isoproterenol), or a muscarinic agonist (iii. Carbachol; CCh).

[4] = tested on: human adult dermal fibroblasts (HADFs); assay: Conversion of human adult dermal fibroblasts into chemically induced cardiomyocytes; assay type: cell-based
Excerpt: 9C is the reprogramming conditions; CCM. CM-conditioned medium; D, day. […] FIG. 9C graphically illustrates test protocols for ascertaining optimal treatment durations for a combination of sodium butyrate and SMER28 (NS) (n=3). The duration shown on the x-axis of the left graph is days (e.g., D0=day zero; D-14=day 14 of treatment). […] Scale bars, 100 μm.

[5] = tested on: human foreskin fibroblast cells; assay: Reprogramming with PBIT as a substitute for AS8351; assay type: cell-based
Method: FIG. 8A graphically illustrates the knockdown efficiency of the indicated shRNAs in human foreskin fibroblast cells detected by qPCR (n=2). Expression values for each gene were normalized to those measured in control shRNA group. […] Data were collected on day 30. […] Data were collected on day 30. […] FIG. 8E illustrates immunofluorescence staining of cardiomyocyte markers on contracting clusters at day 30 after inducing reprogramming where AS8351 was replaced with 10 μM PBIT. Scale bars, 100 μm. […] Em, membrane potential. Dotted lines indicate 0 mV. F/F0, fluorescence relative to the baseline.
This conclusion was further confirmed by using a KDM5B inhibitor, PBIT (Sayegh et al., 2013) (FIGS. 8C and 8D).
KDM5B catalyzes the demethylation of tri-, di-, and mono-methylation states of H3K4 and facilitates heterochromatin formation (Mosammaparast and Shi, 2010). The inventors have observed that one effect of the reprogramming compositions described herein is on re-opening closed chromatin structures.

RasGAP = molecular target: T1, RasGAP (Homo sapiens, UniProt P20936); details: cited from earlier work
T1 sequence (P20936 1-1047): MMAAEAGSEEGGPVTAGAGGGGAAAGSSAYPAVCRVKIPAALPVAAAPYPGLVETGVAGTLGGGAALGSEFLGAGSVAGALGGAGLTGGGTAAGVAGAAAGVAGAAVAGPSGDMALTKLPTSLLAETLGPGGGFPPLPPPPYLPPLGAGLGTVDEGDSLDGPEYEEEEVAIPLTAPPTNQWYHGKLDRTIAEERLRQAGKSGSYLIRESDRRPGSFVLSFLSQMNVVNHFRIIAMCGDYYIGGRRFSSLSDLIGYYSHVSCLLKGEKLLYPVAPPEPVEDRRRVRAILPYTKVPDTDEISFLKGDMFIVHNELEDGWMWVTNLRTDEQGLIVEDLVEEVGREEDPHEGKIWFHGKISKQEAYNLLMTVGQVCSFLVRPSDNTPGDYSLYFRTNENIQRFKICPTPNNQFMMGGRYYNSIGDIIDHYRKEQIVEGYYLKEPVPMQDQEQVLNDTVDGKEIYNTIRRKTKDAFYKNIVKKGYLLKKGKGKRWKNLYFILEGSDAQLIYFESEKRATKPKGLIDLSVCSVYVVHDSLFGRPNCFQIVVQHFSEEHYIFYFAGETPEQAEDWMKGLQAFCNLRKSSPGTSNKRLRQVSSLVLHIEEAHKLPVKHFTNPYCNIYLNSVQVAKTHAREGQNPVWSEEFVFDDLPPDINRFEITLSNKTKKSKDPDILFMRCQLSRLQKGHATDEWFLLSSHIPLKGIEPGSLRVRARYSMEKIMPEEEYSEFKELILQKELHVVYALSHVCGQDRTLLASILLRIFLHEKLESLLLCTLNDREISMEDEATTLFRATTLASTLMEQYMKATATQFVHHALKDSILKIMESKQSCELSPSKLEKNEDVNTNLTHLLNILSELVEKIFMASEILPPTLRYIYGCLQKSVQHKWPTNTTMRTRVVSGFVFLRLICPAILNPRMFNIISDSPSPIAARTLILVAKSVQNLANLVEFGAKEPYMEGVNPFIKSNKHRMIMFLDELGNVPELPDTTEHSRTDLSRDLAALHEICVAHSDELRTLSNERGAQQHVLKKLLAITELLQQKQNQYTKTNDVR

ERK1 = ERK1 (Homo sapiens, UniProt P27361); details: cited from earlier work
Chain of ERK1 (P27361 whole entry, species assumed): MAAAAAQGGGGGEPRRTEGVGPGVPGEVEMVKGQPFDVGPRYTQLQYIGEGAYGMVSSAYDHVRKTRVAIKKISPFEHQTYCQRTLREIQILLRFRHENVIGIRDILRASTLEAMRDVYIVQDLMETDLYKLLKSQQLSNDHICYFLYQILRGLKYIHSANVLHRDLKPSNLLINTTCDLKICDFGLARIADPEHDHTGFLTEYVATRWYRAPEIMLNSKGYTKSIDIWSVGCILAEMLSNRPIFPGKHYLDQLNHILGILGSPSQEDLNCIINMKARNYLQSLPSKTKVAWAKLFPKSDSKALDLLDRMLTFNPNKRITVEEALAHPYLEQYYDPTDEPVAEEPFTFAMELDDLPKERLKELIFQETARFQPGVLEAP

[6] = molecular target: platelet-derived growth factor receptor β (PDGFRβ) (Homo sapiens, UniProt P09619); details: cited from earlier work
Chain of platelet-derived growth factor receptor β (PDGFRβ) (P09619 33-1106): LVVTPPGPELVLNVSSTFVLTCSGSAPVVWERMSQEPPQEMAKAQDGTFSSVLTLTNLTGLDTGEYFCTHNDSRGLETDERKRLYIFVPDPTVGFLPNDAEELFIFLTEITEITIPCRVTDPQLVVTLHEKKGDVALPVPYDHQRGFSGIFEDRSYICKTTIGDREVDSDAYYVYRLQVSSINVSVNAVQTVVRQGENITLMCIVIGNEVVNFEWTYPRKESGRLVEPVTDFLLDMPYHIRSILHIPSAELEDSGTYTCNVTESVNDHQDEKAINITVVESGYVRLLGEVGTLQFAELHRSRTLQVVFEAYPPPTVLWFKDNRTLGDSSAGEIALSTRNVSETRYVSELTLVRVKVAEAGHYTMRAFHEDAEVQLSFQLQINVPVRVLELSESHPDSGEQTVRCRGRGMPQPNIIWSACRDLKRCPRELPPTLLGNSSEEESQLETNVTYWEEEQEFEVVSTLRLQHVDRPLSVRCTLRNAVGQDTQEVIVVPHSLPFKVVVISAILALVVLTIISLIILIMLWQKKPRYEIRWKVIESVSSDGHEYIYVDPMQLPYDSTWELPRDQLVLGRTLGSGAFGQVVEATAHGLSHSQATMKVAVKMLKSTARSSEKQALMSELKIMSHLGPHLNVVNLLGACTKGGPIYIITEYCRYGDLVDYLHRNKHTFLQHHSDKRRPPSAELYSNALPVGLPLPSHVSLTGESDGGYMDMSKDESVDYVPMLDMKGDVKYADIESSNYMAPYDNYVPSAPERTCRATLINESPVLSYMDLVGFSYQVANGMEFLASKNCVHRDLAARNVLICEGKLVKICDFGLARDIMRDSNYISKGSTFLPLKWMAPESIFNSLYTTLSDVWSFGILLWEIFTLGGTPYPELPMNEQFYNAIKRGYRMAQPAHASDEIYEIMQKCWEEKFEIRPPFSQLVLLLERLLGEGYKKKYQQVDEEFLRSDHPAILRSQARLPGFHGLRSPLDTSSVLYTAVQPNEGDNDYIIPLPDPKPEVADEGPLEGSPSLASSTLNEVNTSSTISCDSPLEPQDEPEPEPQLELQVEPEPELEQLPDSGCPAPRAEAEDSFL

SAPK2/p38 = SAPK2/p38 (Homo sapiens, UniProt Q16539); details: CK1 and ALK5 inhibitor vs SAPK2/p38; cited from earlier work
Chain of SAPK2/p38 (Q16539 whole entry): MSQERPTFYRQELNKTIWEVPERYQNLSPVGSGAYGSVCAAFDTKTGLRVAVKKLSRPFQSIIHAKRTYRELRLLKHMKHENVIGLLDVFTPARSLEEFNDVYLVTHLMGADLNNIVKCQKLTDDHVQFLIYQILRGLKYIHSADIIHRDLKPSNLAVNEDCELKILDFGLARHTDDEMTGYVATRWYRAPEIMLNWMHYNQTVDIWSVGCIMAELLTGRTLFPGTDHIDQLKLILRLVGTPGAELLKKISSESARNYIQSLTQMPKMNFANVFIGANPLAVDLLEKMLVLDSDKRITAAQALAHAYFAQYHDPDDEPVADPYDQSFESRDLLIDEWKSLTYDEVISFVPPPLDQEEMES

[7] = 7-day pretreatment before reprogramming

N#CC(C#N)=Cc1ccc(O)c(O)c1 [AG18, [(3,4-Dihydroxyphenyl)methylene]-propenedinitrile]
IC50 [1]: 25 µM

N#CC(=Cc1ccc2[nH]ccc2c1)C(N)=C(C#N)C#N [AG-370, 2-Amino-4-(1H-indol-5-yl)-1,1,3-tricyanobuta-1,3-diene]
IC50 [2]: 820 µM
IC50 [1]: 20 µM

CC(C)(C)c1cc(C=C(C#N)C#N)cc(C(C)(C)C)c1O [Tyrphostin 9]
IC50 [1]: 1.2 µM

C[N+](C)(C)CCOC(N)=O [Cch, carbachol]
effect on beating frequency [3]: opposite, negative effect

CCCC(=O)[O-].[Na+] [sodium butyrate (NaB), sodium butyrate]
induction efficiency of HADFs ([4]; pretreatment in combination with SMER28): further increased the induction efficiency of HADFs

COc1cc2ncc(-c3ccccc3)nc2cc1OC [AG-1296, 6,7-Dimethoxy-3-phenylquinoxaline]
IC50 [1]: 1 µM

Cc1ccc(-n2sc3ccccc3c2=O)cc1 [PBIT, 2-(4-methylphenyl)-1,2-benzisothiazol-3(2H)-one]
electrophysiological features ([5]; 10 μM PBIT as a substitute for AS8351): exhibited CM-like electrophysiological features
expression of cardiac proteins ([5]; 10 μM PBIT as a substitute for AS8351, day 30): expressed a broad panel of cardiac proteins

Cc1cc(Nc2ncc3c(n2)N(C)C(=O)N(c2cc(NC(=O)c4cccc(C(F)(F)F)c4)ccc2C)C3)n(C)n1 [SC1, N-(3-(7-(1,3-dimethyl-1H-pyrazol-5-ylamino)-1-methyl-2-oxo-1,2-dihydropyrimido[4,5-d]pyrimidin-3(4H)-yl)-4-methylphenyl)-3-(trifluoromethyl)benzamide]
Kd (RasGAP): 98 nM
Kd (ERK1): 212 nM

C=CCNc1ncnc2ccc(Br)cc12 [SMER28]
generation of beating cardiac clusters from HADFs [4, 7]: enabled the generation of beating cardiac clusters
proliferation of HADFs [4, 7]: increased the proliferation of HADFs

CC(C)NCC(O)c1ccc(O)c(O)c1 (centres unmarked) [isoproterenol]
effect on beating frequency [3]: significantly increased

N#C/C(=C\c1ccc(O)c(O)c1)C(N)=O [Tyrphostin 46]
IC50 [1]: 50 µM

Cc1[nH]c(C=C2C(=O)Nc3ccccc32)c(C)c1CCC(=O)O [SU 6668]
IC50 [6]: 60 nM

NC(=O)c1ccc(-c2nc(-c3ccc4c(c3)OCCO4)c(-c3ccccn3)[nH]2)cc1 [D 4476, 4-[4-(2,3-Dihydro-1,4-benzodioxin-6-yl)-5-(2-pyridinyl)-1H-imidazol-2-yl]benzamide]
selectivity over SAPK2/p38 (SAPK2/p38): greater than 20 fold
